The results in this text go back to PubChem BioAssay (NCI).

Test in all cases: NCI tumour cell line growth inhibition, 48 h
The subject of assay [1] is HCT-116 colon.
For assay [2], the system named is IGROV1 ovarian.
Assay [3] deals with MALME-3M melanoma.
The test system of assay [4] is NCI-H460 lung.
Assay [5] concerns OVCAR-3 ovarian.
Assay [6] has as its system PC-3 prostate.
For assay [7], the system named is RXF 393 renal.
Assay [8] concerns SK-MEL-2 melanoma.
The subject of assay [9] is SK-OV-3 ovarian.
Assay [10] has as its system SW-620 colon.

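Where inhibition never reached the appropriate level, the endpoint shown equals the highest concentration tested. Otherwise, values were interpolated linearly from a five-concentration, 48-hour dose response in 96-well plates. GI50: concentration for 50% inhibition of growth. TGI marks complete inhibition of growth.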

As to `O=S(=O)(c1ccc(Cl)cc1)C(Cl)(Cl)Cl`, the GI50 in assay [1] was 2.43 µM; in assay [2], 3.08 µM; in [3] it was 0.244 µM; in assay [4], 3.79 µM; in assay [5], 0.886 µM; in assay [6], 4.73 µM. Also, the GI50 in assay [7] was 1.47 µM; in assay [8], 3.05 µM; in assay [9], 14 µM; in [10] it was 2.58 µM. Further, the TGI was 11.3 µM in assay [1]; 23.5 µM in assay [2]; 3.89 µM in [3]; 17 µM in [4]; 4.45 µM in [5]; above 62.5 µM in assay [6]. Besides, the TGI in [7] was 8.91 µM; in [8] it was 19.9 µM; in [9], 67 µM; in assay [10], 11.7 µM.
For the compound `CO/N=C(\COc1ccc2c(c1)[nH]c1ccccc12)c1ccc(F)cc1`, the GI50 was 20.6 µM in assay [1]; 77.3 µM in assay [2]; 22.8 µM in [3]; above 100 µM in assay [4]; 10.6 µM in assay [5]; 30.6 µM in [6]. For the same compound, the GI50 in assay [7] is 27.6 µM; in [9] it was 28.7 µM; in [10], above 100 µM. Moreover, the TGI in [1], in assay [2], in [3], in assay [4], in [5] and in assay [6] was above 100 µM in each case. The TGI in [7], in assay [9] and in assay [10] was above 100 µM in each case.
Regarding `COc1cc2c3c(n(C)c(=O)c2cc1OC)-c1cc2c(cc1/C3=C\CCCCN1C(=O)c3ccccc3C1=O)OCO2`, the GI50 in assay [1] was 22.8 µM; in assay [4] it was 3.52 µM; in assay [5], 38.1 µM; in assay [6], 10.5 µM; in assay [7] it was 56.5 µM; in assay [9], 13.5 µM. Besides, the GI50 in [10] was 7 µM. The TGI in assay [1] was above 100 µM; in [4] it was 43.7 µM; in assay [5] it was above 100 µM; in [6], 51.6 µM; in [7], above 100 µM; in [9] it was 45.7 µM. Moreover, the TGI in assay [10] was above 100 µM.
On to `COc1ccc2c(c1)N(CCO)C1=C(C(=O)OC1)C2c1cccc(F)c1` (stereo not drawn), for which the GI50 in assay [1] is 0.406 µM; in assay [2] it was 0.433 µM; in [3], 0.391 µM; in [4] it was 0.227 µM; in [5], 0.188 µM; in assay [6] it was 0.232 µM. The GI50 in [7] was 0.555 µM; in assay [8], 0.801 µM; in assay [9], 1.26 µM; in assay [10], 0.236 µM. Also, the TGI in assay [1], in assay [2], in assay [3], in assay [4], in assay [6] and in [7] was above 50 µM in each case. In addition, the TGI in [8] is above 36.2 µM; in assay [9] it was above 50 µM; in assay [10], above 50 µM.
For the compound `CCc1ccc2c(c1)N(CCO)C1=C(C(=O)OC1)C2c1cccc(Br)c1` (stereo not drawn), the GI50 in assay [1] is 0.449 µM; in assay [2], 2.56 µM; in [3] it was 2.58 µM; in [4], 0.397 µM; in assay [5] it was 0.296 µM; in assay [6], 0.491 µM. Further, the GI50 was 0.216 µM in assay [7], 0.3 µM in assay [8], 0.42 µM in assay [9] and 0.35 µM in assay [10]. The TGI in assay [1] turned out to be 14 µM; in assay [2] it was 25.9 µM; in assay [3], 25.6 µM; in assay [4], 11.9 µM; in assay [5], 1.23 µM; in [6], 16.2 µM. In addition, the TGI in assay [7] worked out at 1.82 µM; in assay [8] it was 7.14 µM; in assay [9], 10.1 µM; in assay [10], 18.7 µM.
For `Fc1ccc(/C=N/n2c(-c3ccc(F)c(Cl)c3)nn(CNc3ccccc3C(F)(F)F)c2=S)cc1`, the GI50 in assay [1] is 55.4 µM; in [2], 83.6 µM; in assay [3], 27.2 µM; in assay [4], 43.3 µM; in [5], 53.9 µM; in assay [6] it was 37.4 µM. The GI50 in [7] was 59.4 µM; in assay [8] it was 46.6 µM; in assay [9] it was above 100 µM; in assay [10], 86.2 µM. The TGI in [1] is above 100 µM; in assay [2], above 100 µM; in assay [3] it was 95.7 µM; in assay [4] it was above 100 µM; in assay [5], above 100 µM; in assay [6], above 100 µM. Besides, the TGI in assay [7], in assay [8], in assay [9] and in assay [10] was above 100 µM each time.
Consider `OCC1OC(n2cnc3c(N/N=C\c4ccccn4)ncnc32)C(O)C1O` (stereo not drawn), for which the GI50 is 0.11 µM in assay [1]; 0.41 µM in assay [2]; 0.404 µM in assay [3]; 0.384 µM in assay [4]; 0.319 µM in assay [5]; 0.361 µM in assay [6]. For the same compound, the GI50 in [7] is 0.275 µM; in [8], 0.611 µM; in [9], 0.239 µM; in [10], 0.422 µM. Moreover, the TGI was 10.8 µM in assay [1]; 8.98 µM in assay [2]; 6.19 µM in assay [3]; 4.53 µM in assay [4]; 3.04 µM in assay [5]; above 33.6 µM in assay [6]. Further, the TGI in assay [7] was 2.45 µM; in [8], above 100 µM; in assay [9], 2.97 µM; in assay [10] it was above 100 µM.
In the case of `O=C(/C=C/c1cc2ccccc2[nH]c1=O)/C=C/c1cc2ccccc2[nH]c1=O`, the GI50 in assay [1] is 1.28 µM; in [2], above 19.7 µM; in assay [3], above 59.6 µM; in assay [4], 32.3 µM; in assay [5], 12.1 µM; in assay [6] it was above 21.5 µM. The GI50 was 6.88 µM in assay [7], above 24.7 µM in assay [8], 31.4 µM in [9] and 6.34 µM in assay [10]. Further, the TGI was 2.09 µM in assay [1]; above 49.3 µM in assay [2]; above 100 µM in [3]; above 100 µM in assay [4]; above 63.5 µM in [5]; above 81.1 µM in assay [6]. For the same compound, the TGI in assay [7] was 10.8 µM; in assay [8], above 30.6 µM; in assay [9], above 100 µM; in assay [10], 14.8 µM.
Regarding `CCCCCCCCCCCCCCCCCC[n+]1ccc2c(C)c3c(c(C)c2c1)c1cc(O)ccc1n3CC`, the GI50 in assay [1] was 1.19 µM; in assay [4], 1.72 µM; in assay [5], 1.88 µM; in assay [6], 1.3 µM; in [7], 1.57 µM; in assay [8], 1.58 µM. In addition, the figures for the GI50 in assay [9] and in assay [10] were 1.84 µM and 1.79 µM, respectively. For the same compound, the TGI in assay [1] was determined as 12.7 µM; in assay [4], 4.18 µM; in assay [5], 4.68 µM; in assay [6], 11 µM; in [7] it was 3.89 µM; in assay [8], 3.27 µM. Further, the TGI worked out at 7.6 µM in assay [9] and 7.1 µM in assay [10].
As for `O=c1[nH]c(=O)n(C2CC(O)C(COP(=O)(OCc3ccc([N+](=O)[O-])o3)N(CCCCCl)CC(O)CO)O2)cc1F` (stereo not drawn), the GI50 in assay [1] is 0.999 µM; in assay [3], 0.207 µM; in assay [4] it was below 0.0474 µM; in assay [5], 0.39 µM; in assay [6], 0.154 µM; in assay [7] it was 0.0243 µM. For the same compound, the GI50 is above 73.8 µM in assay [8], above 100 µM in [9] and 0.0447 µM in assay [10]. In addition, the TGI was above 100 µM in assay [1]; above 29.9 µM in [3]; above 100 µM in [4]; above 100 µM in assay [6]; 3.6 µM in assay [7]; above 100 µM in [8]. Further, the TGI in [9] and in assay [10] was above 100 µM each time.
With `CCCCCCCCCCCCCCCCCC1=NCCN1CCOC1=C(Cl)C(=O)c2ccccc2C1=O`, the GI50 was 1.82 µM in assay [1]; 1.95 µM in [3]; 3.33 µM in [4]; 1.85 µM in [5]; 1.85 µM in assay [6]; 1.79 µM in assay [7]. Moreover, the GI50 in assay [8] is 2.39 µM; in assay [9], 1.93 µM; in assay [10], 1.73 µM. Also, the TGI in [1] came to 3.43 µM; in assay [3], 4.13 µM; in assay [4], 16.1 µM; in assay [5], 3.34 µM; in assay [6], 4.27 µM; in assay [7] it was 3.2 µM. Also, the TGI in [8] worked out at 5.08 µM; in assay [9], 5.11 µM; in assay [10] it was 3.41 µM.
Consider `CO[C@H]1CC(O[C@@H]2/C(C)=C/C[C@@H]3C[C@@H](C[C@]4(C=C[C@H](C)[C@@H](C5CCCCC5)O4)O3)OC(=O)[C@@H]3C=C(C)[C@@H](O)[C@H]4OC/C(=C\C=C\[C@@H]2C)[C@]43O)O[C@@H](C)C1O[C@H]1C[C@H](OC)[C@@H](O)[C@H](C)O1` (stereo partly drawn), for which the GI50 was 1.4 µM in [1]; 1.66 µM in assay [5]; 1.08 µM in assay [6]; 1.18 µM in assay [7]; 1.97 µM in assay [9]. The TGI in [1] was 2.72 µM; in assay [5], 3.12 µM; in assay [6], 2.68 µM; in [7], 2.46 µM; in [9], 3.61 µM.
`COc1cccc(OC(=O)c2ccc(C(F)(F)F)nc2Nc2cc(Cl)ccc2C)c1`: the GI50 in assay [1] is 16.9 µM; in assay [2], 8.35 µM; in assay [4] it was 2.92 µM; in [5], 22.9 µM; in assay [6], 4.47 µM; in [7], 0.245 µM. Also, the GI50 in [8] is 12.9 µM; in [9], 11.1 µM; in assay [10], 5.31 µM. Further, the TGI in assay [1] was 55.8 µM; in assay [2] it was above 100 µM; in assay [4] it was 15.4 µM; in assay [5] it was 46.8 µM; in assay [6], above 100 µM; in assay [7], 0.987 µM. The TGI in assay [8] turned out to be 50.2 µM; in assay [9], 80.7 µM; in assay [10], 50.7 µM.
Regarding `FC(F)(F)c1ccc(-c2cnc(-c3ncon3)nc2NC2CCCCCC2)cc1`, the GI50 is 33.9 µM in assay [1]; 52.5 µM in assay [2]; 49.8 µM in [3]; 37.2 µM in [4]; 36.8 µM in assay [5]; 24.6 µM in assay [6]. Besides, the GI50 is 28.9 µM in [7], above 100 µM in assay [9] and 43.3 µM in assay [10]. Besides, the TGI is above 100 µM in assay [1]; above 100 µM in assay [2]; above 100 µM in [3]; above 100 µM in assay [4]; above 100 µM in [5]; 86.5 µM in assay [6]. Moreover, the TGI in assay [7], in [9] and in assay [10] was above 100 µM in each case.
For the compound `CN(C)CCCn1c(=O)c2ccccc2c2ccccc21`, the GI50 in [1] is 4.74 µM; in assay [4], 7.55 µM; in [5], 20.4 µM; in assay [6], 18.2 µM; in [7], 12.5 µM; in assay [8] it was 16.5 µM. For the same compound, the GI50 is 26.6 µM in assay [9] and 6.27 µM in [10]. Besides, the TGI was above 100 µM in assay [1]; 25.8 µM in [4]; 52.4 µM in [5]; 54.2 µM in assay [6]; 26.7 µM in [7]; 33.5 µM in assay [8]. For the same compound, the TGI is above 100 µM in [9] and 53.3 µM in assay [10].
As to `COc1cc2c(cc1C1COc3cc4occc4cc3C1=O)OCO2` (stereo not drawn), the TGI in assay [1], in assay [2], in assay [3], in [5], in assay [6] and in assay [7] was above 100 µM each time. For the same compound, the TGI in assay [8], in [9] and in assay [10] was above 100 µM throughout.
